Data on 2 compounds can be found in PMC10850954, “HDAC6/aggresome processing pathway importance for inflammasome formation is context-dependent” (The Journal of Biological Chemistry, 2024).

Test [1] addresses T1, HDAC6 (Homo sapiens, UniProt Q9UBN7).
T1 sequence (Q9UBN7 1-1215): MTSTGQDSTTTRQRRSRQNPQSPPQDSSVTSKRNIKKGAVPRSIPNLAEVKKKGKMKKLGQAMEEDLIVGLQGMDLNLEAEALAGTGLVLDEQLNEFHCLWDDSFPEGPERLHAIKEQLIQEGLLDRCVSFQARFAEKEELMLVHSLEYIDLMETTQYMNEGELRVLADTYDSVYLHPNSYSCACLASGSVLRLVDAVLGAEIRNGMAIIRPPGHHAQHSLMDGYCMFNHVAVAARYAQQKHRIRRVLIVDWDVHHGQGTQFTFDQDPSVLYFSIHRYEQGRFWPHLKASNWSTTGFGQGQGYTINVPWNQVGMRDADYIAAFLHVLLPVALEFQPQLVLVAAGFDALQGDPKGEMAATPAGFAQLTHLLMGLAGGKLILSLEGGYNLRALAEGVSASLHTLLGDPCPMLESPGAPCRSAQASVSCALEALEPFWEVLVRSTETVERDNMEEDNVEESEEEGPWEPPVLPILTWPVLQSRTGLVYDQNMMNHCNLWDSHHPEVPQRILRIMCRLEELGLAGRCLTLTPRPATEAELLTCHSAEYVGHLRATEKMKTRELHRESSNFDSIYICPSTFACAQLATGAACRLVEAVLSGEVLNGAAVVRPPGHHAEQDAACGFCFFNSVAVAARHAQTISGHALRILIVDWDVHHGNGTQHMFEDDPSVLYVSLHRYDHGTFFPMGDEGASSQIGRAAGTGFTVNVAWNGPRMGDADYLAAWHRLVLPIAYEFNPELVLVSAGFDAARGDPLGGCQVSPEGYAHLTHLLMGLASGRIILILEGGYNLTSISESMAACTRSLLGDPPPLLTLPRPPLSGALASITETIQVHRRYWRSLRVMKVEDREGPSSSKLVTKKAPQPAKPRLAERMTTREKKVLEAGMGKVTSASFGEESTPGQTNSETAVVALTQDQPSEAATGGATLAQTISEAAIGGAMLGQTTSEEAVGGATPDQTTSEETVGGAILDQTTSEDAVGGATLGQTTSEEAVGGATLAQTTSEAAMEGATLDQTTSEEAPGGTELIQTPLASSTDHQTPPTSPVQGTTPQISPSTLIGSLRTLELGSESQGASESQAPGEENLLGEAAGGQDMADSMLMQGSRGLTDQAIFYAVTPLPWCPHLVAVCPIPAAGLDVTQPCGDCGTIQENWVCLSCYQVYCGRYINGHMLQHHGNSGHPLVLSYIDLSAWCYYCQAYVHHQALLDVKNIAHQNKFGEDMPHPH
More on the design: method as in PMID 26471297. To be noted: BMDMs; cited from earlier work.

The target of test [2] is T1, HDAC6. Set-up: endogenous in cells; method as in PMID 37481141. To be noted: THP-1 cells; cited from earlier work.
In the next test the target is T2, HA-F10-FKBP F36V (Homo sapiens, UniProt P62942, F37V).
T2 construct: expressed in transfected cells; host or cells: THP-1, lentiviral transduction, single-cell clone
T2 sequence (P62942 2-108 F37V limits assumed): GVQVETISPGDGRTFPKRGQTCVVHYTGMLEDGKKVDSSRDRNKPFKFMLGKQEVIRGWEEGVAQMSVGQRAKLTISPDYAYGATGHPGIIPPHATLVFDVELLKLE
T2 sequence (Q96SW2 whole entry, further chain): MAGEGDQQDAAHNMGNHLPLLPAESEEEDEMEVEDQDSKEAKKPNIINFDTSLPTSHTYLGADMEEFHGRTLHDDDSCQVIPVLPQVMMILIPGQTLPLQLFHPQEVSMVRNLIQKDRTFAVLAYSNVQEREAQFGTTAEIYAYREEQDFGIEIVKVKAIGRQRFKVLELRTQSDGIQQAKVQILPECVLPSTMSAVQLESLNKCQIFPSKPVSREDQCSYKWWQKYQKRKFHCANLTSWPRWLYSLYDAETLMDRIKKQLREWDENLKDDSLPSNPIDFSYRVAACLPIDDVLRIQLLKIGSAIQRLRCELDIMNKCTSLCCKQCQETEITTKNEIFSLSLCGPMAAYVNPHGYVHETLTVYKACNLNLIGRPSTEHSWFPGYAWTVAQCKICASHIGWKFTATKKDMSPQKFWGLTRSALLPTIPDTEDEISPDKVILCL
Kind of test: dTAG-induced degradation of DARPin F10-FKBPF36V in THP-1 cells (immunoblot). The test is classed as cell-based. To be noted: F10-FKBPF36V THP-1 cells, within 6 h of dTAG addition. (In general: A western blot detects proteins with antibodies after separation by electrophoresis.)

In another test the test system is NLRP3 inflammasome. Kind of test: IL-1β release in THP-1 cells after nigericin stimulation. The test is classed as cell-based, human. The conditions noted are these: dTAG 1 μM.

Procedure for HA-F10-FKBP F36V: B, establishment of a THP-1 F10-FKBP cell line with degradable DARPin F10. Immunoblotting with lysates of THP-1 F10-FKBP cells treated at the indicated concentration with dTAG (for 6 h). […] The membrane was probed with antibodies against actin as loading control and F10 (HA-F10-FKBP ^F36V, detected with anti-HA).
The membrane was blocked with 5% milk-TBS, and then incubated with primary antibodies overnight at 4 °C. The signal was developed with HRP-conjugated secondary antibodies and Amersham ECL Western Blotting Detection Reagent (Cytiva#RPN2106).
Procedure for NLRP3 inflammasome: B, establishment of a THP-1 F10-FKBP cell line with degradable DARPin F10. Immunoblotting with lysates of THP-1 F10-FKBP cells treated at the indicated concentration with dTAG (for 6 h). […] The membrane was probed with antibodies against actin as loading control and F10 (HA-F10-FKBP ^F36V, detected with anti-HA). C, IL-1β release under various treatments in THP-1 F10-FKBP cells at 3 h post-nigericin stimulation. Cells were treated as indicated in the scheme at the top. […] One-way ANOVA test was applied for statistical analysis. ∗∗∗∗p <0.0001. […] D, IL-1β release from 0 h to 3.5 h after nigericin treatment in THP-1 or THP-1-F10-FKBP cells. Experimental set-up was as in (B) and IL-1β concentration was monitored at timepoint 0, 0.5, 1.5, and 3.5 h post nigericin treatment. Two-way ANOVA tests were applied, and comparison was performed within each timepoint between with and without dTAG group. ∗∗p< 0.01. Experimental setup as in (C).
Human IL-1β and IL-18 were determined with Cisbio HTRF Cisbio Human IL1β (#62HIL1BPET) and Human IL18 (#62HIL18PEG) protocols. All the data were from 3 or 4 independent biological replicates.
For BMDM cells, 1.5 × 10^6 cells per well were seeded in six-well plates. After priming with 1 μg/ml LPS (Invivogen #tlrl-b5lps), cells were challenged with 200 μg/ml MSU crystals (Invivogen #tlrl-msu-25) for 6 h or 20 μM nigericin (Sigma-Aldrich #N7143-5MG) for 30 min. […]

On to `CN1CCc2c(c3ccccc3n2Cc2ccc(C(=O)NO)cc2)C1` [Tubastatin A], for which, at HDAC6 [1], the mIL-1β level entry is reported as “did not impact the mIL-1β level”. Besides, the IL-1β release result at HDAC6 [2] is reported as “reduced IL-1β release”.
As to `CC[C@H](C(=O)N1CCCC[C@H]1C(=O)O[C@H](CCc1ccc(OC)c(OC)c1)c1ccccc1OCC(=O)NCCCCCCOc1cccc2c1C(=O)N(C1CCC(=O)NC1=O)C2=O)c1cc(OC)c(OC)c(OC)c1` (some centres unmarked) [dTAG], on HA-F10-FKBP F36V, the “degradation of DARPin F10” value is reported as “efficiently degraded”. Also, the IL-1β release result is “partial, but significant, recovery” with NLRP3 inflammasome (F10-FKBPF36V THP-1 cells, PMA 0.5 μM, nigericin 15 μM, compared to WT THP-1) and “comparable” in the test on NLRP3 inflammasome (parental WT THP-1, PMA 0.5 μM 3 h, nigericin 15 μM 3 h, MCC950 10 μM).
